We go through 21 compounds from paper PMC2688476, “Low affinity glucocorticoid binding site ligands as potential anti-fibrogenics” (Comparative Hepatology, 2009).

The target of series [1] is low affinity glucocorticoid binding site (LAGS) in rat liver microsomes (Rattus norvegicus, UniProt P70580). In words: Competition with radiolabelled dexamethasone for specific binding to rat liver microsomes (LAGS activity). Particulars: for IC50: vs radiolabelled dexamethasone. Here is the method: A small volume of each incubation was removed to determine the total ligand concentration ([L0]) prior to removal of free unbound ligand by dextran/charcoal adsorption. […] Free ligand concentration at equilibrium was calculated by subtracting specifically bound ligand at equilibrium from the total ligand concentration (i.e. [L0] - [LRe]) and assumes receptor-ligand stoichiometry of 1:1.
Sequence of low affinity glucocorticoid binding site (LAGS) in rat liver microsomes (P70580 2-195): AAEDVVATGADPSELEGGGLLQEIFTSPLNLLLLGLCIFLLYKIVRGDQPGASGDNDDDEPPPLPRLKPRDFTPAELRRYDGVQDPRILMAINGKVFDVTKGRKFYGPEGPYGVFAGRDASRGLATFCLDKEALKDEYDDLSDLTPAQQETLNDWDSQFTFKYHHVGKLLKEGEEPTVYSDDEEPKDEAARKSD
In brief, rats were anaesthetized with pentobarbital and a 16G cannula inserted into the hepatic portal vein and secured. […] The liver was then excised and chopped roughly with ice-cooled TS buffer (10 mM Tris/HCl pH 7.4 containing 250 mM sucrose) and disrupted using a Potter-Elvehjem homogenisor. The resultant homogenate was then centrifuged at 12,000 g for 20 minutes at 4°C and the supernatant retained and centrifuged at 100,000 g for 60 minutes at 4°C. The resultant "microsomal" pellet was re-suspended in fresh TS buffer and re-centrifuged at 100,000 g to obtain a washed microsomal pellet. […] After overnight incubation on ice, free ligand was removed by charcoal dextran adsorption and bound radioligand determined in supernatants by liquid scintillation, essentially as previously described.
(Liver microsomes are vesicles of endoplasmic reticulum, rich in cytochrome P450 enzymes.)

A further series concerns CYP3A1/3A23. The series is described as follows: Screening for PXR activators in rat hepatocytes via CYP3A induction (Western blot). Format: cell-based. The following applies: 10 μM for 24 hours (PCN 20 μM), Western blot. (In general: Immunoblotting shows a protein as a band on a membrane.)
The target in a further series is T1, rPGRMC1 (Rattus norvegicus, UniProt P70580).
T1 construct: the full length cDNA for rPGRMC1 was cloned from rat myofibroblasts and expressed in COS-7 cells; expressed in transfected cells; host or cells: COS-7 cells transfected with pSG5-rPGRMC1
T1 sequence (P70580 whole entry): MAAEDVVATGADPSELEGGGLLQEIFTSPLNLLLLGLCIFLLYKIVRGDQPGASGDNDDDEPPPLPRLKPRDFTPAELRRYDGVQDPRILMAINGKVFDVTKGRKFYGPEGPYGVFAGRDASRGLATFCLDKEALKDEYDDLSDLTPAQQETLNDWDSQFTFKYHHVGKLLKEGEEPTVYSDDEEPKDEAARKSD
In words: Dexamethasone binding competition in COS-7 cells transfected with pSG5-rPGRMC1. The following applies: unlabelled competitor, Fig. 2e. Here is the method: Western blot for rPGRMC1 in various cell fractions using the anti-IZ Ab in COS-7 cells transfected with the indicated construct. All lanes were loaded with 10 μg protein/lane. Note, HC5 is a truncated form of rPGRMC1 cloned from rat kidney (a). Western blot for rPGRMC1 using the anti-IZ Ab and CYP2E1 (lower blot). Rat hepatocytes were cultured for 24 hours to allow attachment (T0) and then treated for 24 hours with the indicated ligand or ethanol vehicle prior to analysis. Each lane contains 10 μg total protein/well, typical of 3 separate experiments (b). […] The percentage of cells that stained positive for beta galactosidase activity (grey bars) was determined in situ in separate wells by examining at least 5 randomly selected low power fields. […] The percent of binding in the presence of unlabelled competitors was determined after subtraction of non-specific binding. […]
COS-7 cells were transfected at 30–50% confluency using Effectene transfection reagent (Qiagen, Southampton, UK) essentially according to the manufacturer's instructions with either pSG5 empty vector, pSG5-rPGRMC1 or the β-galactosidase-encoding pcDNA3.1e/lacZ vector (Invitrogen, Paisley, UK). Thirty hours after transfection, β-galactosidase activity was determined in fixed cells,in situ. […]

The next series has as its system rat HSCs. The series is described as follows: Rat HSC-to-myofibroblast trans-differentiation (α-smooth muscle actin Western blot). Format: cell-based. The following applies: α-sma Western blot after 9 days of treatment. Here is the method:
(§1) Figure 5 Screening for inhibitors of trans-differentiation in rat and human HSCs – Part 1. Rat HSCs were isolated and cultured for 2 days (T0) whereupon cells were treated with the indicated compound as outlined in methods section. After 9 days, cells were analyzed by Western blotting for α-smooth muscle actin (α-sma). Each lane contains 10 μg total protein/lane, results typical of at least 3 separate experiments (a). Human HSCs were treated with the indicated compound and confluence determined in randomly selected fields. Data are the mean and standard deviation confluence at day 12 of 3 separate treatment dishes from the same donor, typical of at least 3 separate donors (b).
(§2) HSCs were isolated from rats (250–300 g body weight, Harlan, UK) by sequential pronase/collagenase perfusion of the liver followed by density gradient centrifugation and elutriation as previously outlined. Human HSCs were isolated by an essentially similar procedure using discarded tissue from patients undergoing a hepatectomy with patient consent and ethical approval by the Grampian Regional Ethical Committee. HSCs were seeded onto plastic culture dishes and cultured in Dulbecco's modified Eagle Medium (DMEM) containing 4.5 g/l of glucose and supplemented with 5% or 16% (v/v) fetal calf serum (for rat or human respectively), […] penicillin, 80 μg/ml streptomycin and 32 μg/ml gentamycin. Additional treatments were made by addition of compounds in an ethanol vehicle (stock solutions at 1000× final concentration). Ethanol at 0.1% (v/v) acted as control. Frequency of treatment (3 treatments per week/2 medium changes per week), as previously described.

The subject of the next series is human HSCs. In words: Human HSC trans-differentiation/proliferation (confluence, α-sma). Particulars: confluence at day 12. The class given is cell-based. Here is the method: as §1
Figure 6 Screening for inhibitors of trans-differentiation in rat and human HSCs – Part 2. Photomicrographs of human HSCs at day 12 of culture with the indicated treatment (a); levels of expression of α-smooth muscle actin (α-sma) (b) and levels of expression of fibrogenic marker mRNA transcripts in human HSCs after treatment selected compounds for 19 days. Data are the mean and standard deviation relative transcript level from 3 separate treatments on cells from the same donor, typical of at least 3 separate donors (c).
as §2

For a further series, the system named is CYP3A4. The series is described as follows: Screening for PXR activators in human hepatocytes via CYP3A induction (Western blot). Format: cell-based. The following applies: 24 hours treatment, Western blot.
Series [2] addresses progesterone binding protein in pig liver microsomes. Particulars: read-out: IC50% for competition for progesterone binding protein; cited from earlier work.
Another series deals with human myofibroblasts. The series is described as follows: Fibrogenic marker mRNA transcripts (TGFβ, TIMP1, collagen 1A1) in human myofibroblasts, qRT-PCR. Format: cell-based. Particulars: treatment for 19 days. An excerpt:
Quantitative transcript expression was examined after reverse transcription (using a Taqman reverse transcription kit (Applied Biosystems)) using a PE Applied Biosystems ABI7700 and PE Applied Biosystems Gene Expression Assay™, incorporating sequence-specific forward, reverse and fluorescently labelled probes (see Table 2).

Where [3] appears, read: read-out: IC50% (competition of substituted progestins for binding to rat liver microsomes), Additional file 1.
Where [4] appears, read: read-out: IC50% (competition of dexamethasone derivatives for binding to rat liver microsomes), Additional file 2.

Structures can show the parent of a compound that is named as a salt. Where two headings read alike, the source gives them in different places.

Turning to `CC(=O)[C@H]1CC[C@H]2[C@@H]3C[C@@H](O)C4=CC(=O)CC[C@]4(C)[C@H]3CC[C@]12C` [6α-hydroxyprogesterone], the IC50 (commonly the concentration at which inhibition is half-maximal) in series [1] (setting [3]) was found to be 5 µM.

Consider `CC(=O)O[C@@H]1C=C2CC[C@H]3[C@@H]4CC[C@H](C(C)=O)[C@@]4(C)CC[C@@H]3[C@@]2(C)CC1` [4 pregnene-3β-ol-20-one acetate], for which, in series [1] (setting [3]), the IC50 is 0.5 µM.

With biotinylated dexamethasone, the IC50 in series [1] (setting [4]) is > 100 µM.

In the case of `CC(=O)[C@H]1[C@H](C#N)C[C@H]2[C@@H]3CC=C4C[C@@H](O)CC[C@]4(C)[C@H]3CC[C@@]21C` [PCN, pregnenolone 16α carbonitrile], in the series with CYP3A1/3A23, the “CYP2E expression in rat hepatocytes” value is given as “no affect” and the “CYP3A1/3A23 expression (induction) in rat hepatocytes” value is “induced”. In addition, the “competition with dexamethasone for binding to COS-7 cell extracts over-expressing rPGRMC1” value at rPGRMC1 is “significant competition”. The “inhibition of rat HSC trans-differentiation” value with rat HSCs is “inhibited”.

`CC(=O)[C@H]1CC[C@H]2[C@@H]3CCC4=CC(=O)CC[C@]4(C)[C@H]3CC[C@]12C` [progesterone, reference compound]: in the series on rat HSCs, the “inhibition of rat HSC trans-differentiation” value is listed as “markedly inhibited”. The “competition for dexamethasone binding to rat liver microsomes (in words)” value in series [1] (rat liver microsomes) is “competed”. Moreover, the “inhibitory activity on human HSC trans-differentiation” value in the series on human HSCs is listed as “significant inhibitory activity”.

Consider `CC(=NOCC(=O)O)[C@H]1CC[C@H]2[C@@H]3CCC4=C[C@@H](O)CC[C@]4(C)[C@H]3CC[C@]12C` [4 pregnene-3β-ol-20-one carboxymethyloxime], for which the half-maximal inhibitory concentration (IC50) in series [1] (setting [3]) is > 100 µM.

As to `C[C@@H]1C[C@H]2[C@@H]3CCC4=CC(=O)C=C[C@]4(C)[C@@]3(F)[C@@H](O)C[C@]2(C)[C@@]1(O)C(=O)COS(C)(=O)=O` [dexamethasone mesylate], the concentration for half-maximal inhibition (IC50) in series [1] (setting [4]) was found to be 10 µM.

With `CC(=O)[C@H]1CC[C@H]2[C@@H]3CCC4=C[C@@H](O)CC[C@]4(C)[C@H]3CC[C@]12C` [4 pregnene-3β-ol-20-one], in series [1] (setting [3]), the concentration for half-maximal inhibition (IC50) came to 0.5 µM.

As for `C[C@H]1C[C@@H]2[C@H]([C@@H](O)C[C@@]3(C)[C@H]2CC[C@]3(O)C(=O)CO)[C@@]2(C)C=CC(=O)C=C12` [methylprednisolone, reference compound], the “CYP3A4 expression (induction) in human hepatocytes” value in the series on CYP3A4 is “evidence of induction”.

Regarding `CC1CC2C3CCC4=CC(=O)C=CC4(C)C3(F)C(O)CC2(C)C1(O)C(=O)O` (stereo not drawn) [17β-carboxylic acid derivative, 9α-fluoro 16α-methyl-11β,17α-dihydroxy-1,4-pregn-3-one 17-carboxylic acid], the half-maximal inhibitory concentration (IC50) in series [1] (setting [4]) turned out to be 100 µM.

For the compound `C[C@@H]1C[C@H]2[C@@H]3CCC4=CC(=O)C=C[C@]4(C)[C@@]3(F)[C@@H](O)C[C@]2(C)[C@@]1(O)C(=O)CO` [dexamethasone, reference compound], in series [2], the IC50 is > 100 µM. Besides, in series [1] (radiolabelled dexamethasone, rat liver microsomes), the “maximal binding site concentration” value is listed as 8.3 pmoles/mg of microsomal protein.

For `CO[C@H]1/C=C/O[C@@]2(C)Oc3c(C)c(O)c4c(O)c(c(/C=N/N5CCN(C)CC5)c(O)c4c3C2=O)NC(=O)/C(C)=C\C=C\[C@H](C)[C@H](O)[C@@H](C)[C@@H](O)[C@@H](C)[C@H](OC(C)=O)[C@@H]1C` [rifampicin, reference compound], the “inhibitory activity on human HSC trans-differentiation” value in the series on human HSCs is “significant inhibitory activity”. In the series on human myofibroblasts, the “expression of TGFβ, TIMP1 and collagen 1A1 mRNAs in human myofibroblasts” value is given as “inhibited the expression of all mRNAs”.

Take `CC(=O)[C@H]1CC[C@H]2[C@@H]3CCC4=CC(=O)CC[C@]4(C)[C@H]3[C@@H](O)C[C@]12C` [11β-hydroxyprogesterone]: the “inhibitory activity on human HSC trans-differentiation” value in the series on human HSCs is “significant inhibitory activity”.

For the compound `CC(=O)O[C@@H]1C[C@H]2[C@@H]3CC[C@H](C(C)=O)[C@@]3(C)CC[C@@H]2[C@@]2(C)CCC(=O)C=C12` [6β-progesterone acetate], in series [1] (setting [3]), the IC50 came out at 0.5 µM.

In the case of `CC(=O)O[C@@H]1C[C@]2(C)[C@@H](C(C)=O)CC[C@H]2[C@@H]2CCC3=CC(=O)CC[C@]3(C)[C@H]21` [11α-progesterone acetate], in series [1] (setting [3]), the IC50 amounted to 0.1 µM.

`CC(=O)[C@H]1CC[C@H]2[C@@H]3CCC4=CC(=O)CC[C@]4(C)[C@H]3[C@H](O)C[C@]12C` [11α-hydroxyprogesterone]: the IC50 in series [1] (setting [3]) turned out to be 0.1 µM.

Regarding `CC(=O)[C@H]1CC[C@H]2[C@@H]3CCC4=CC(=O)CC[C@]4(C)[C@H]3[C@H](OS(=O)(=O)c3ccc(C)cc3)C[C@]12C` [11α-progesterone tosylate], the IC50 in series [1] (setting [3]) was 10 µM.

Turning to `CCC(=O)O[C@H]1CC[C@H]2[C@@H]3CCC4=CC(=O)CC[C@]4(C)[C@H]3CC[C@]12C` [testosterone proprionate, reference compound], the IC50 in series [1] (setting [3]) came to 10 µM.

Turning to `CC(=O)[C@H]1CC[C@H]2[C@@H]3C[C@@H](O)C4=CC(=O)CC[C@]4(C)[C@H]3CC[C@]12C` [6β-hydroxyprogesterone], the IC50 in series [1] (setting [3]) stood at 10 µM.

Regarding `C[C@]12CCC(=O)C=C1CC[C@@H]1[C@@H]2CC[C@]2(C)C(=O)CC[C@@H]12` [androstenedione, reference compound], the IC50 in series [1] (setting [3]) turned out to be 5 µM.

Consider `CCOC(=O)[C@H]1CC[C@H]2[C@@H]3CCC4=CC(=O)CC[C@]4(C)[C@H]3CC[C@]12C` [4 androstene-3-one 17β-carboxylic acid ethyl ester], for which, in series [1] (setting [3]), the IC50 was found to be 0.1 µM.
